Data reported in patent US9163018B2, “Method of treatment of age-related macular degeneration (AMD)” (Prana Biotechnology Limited, priority 2006, dated 2015).

How the values were obtained:
[1] = target: T1, Aβ 1-42 (Homo sapiens, UniProt P05067); assay: Fluorometric H2O2 assay (inhibition of Abeta H2O2 production); format: biochemical; conditions: concentration required to inhibit 50% of Abeta H2O2 production; read-out: H2O2 IC50
T1 construct: The reaction solutions contained Aβ 1-42 at concentrations
Experimental: Assay 1. Fluorometric H2O2 Assay
A fluorometric assay was used to test the ability of a test compound to inhibit hydrogen peroxide generation by Aβ in the presence of copper based on dichlorofluoroscein diacetate (DCF; Molecular Probes, Eugene Oreg.). The DCF solution (5 mM) in 100% dimethyl sulphoxide (previously purged with argon for 2 hr at 20° C.) was deacetylated in the presence of 0.25M NaOH for 30 min and neutralized at pH 7.4 to a final concentration of 1 mM. Horseradish peroxidase (HRP) stock solution was prepared to 1 μM at pH 7.4. The reactions were carried out in PBS, pH 7.4 in a 96 well plate (total volume=250 μl/well). […] The reaction mixture was incubated at 37 C for 60 min. […] H2O2 concentration may be established by comparing fluorescence with the H2O2 standards, Inhibition of Aβ H2O2 production was assayed by including a given concentration of test compound(s) in the test wells.

[2] = target: T2, Abeta:Zn (25:50 μM) Synthetic Aggregations (Homo sapiens, UniProt P05067); assay: Disaggregation of Abeta:Zn synthetic aggregates (ThT fluorescence); format: biochemical; conditions: for Disaggregation % Aggregate reduction at 5 μM: 5 μM test compound; for EC50: Abeta:Zn 25:50 μM aggregates
T2 construct: PB Compound Mediated Dissolution of Aggregated Abeta 1-42; purchased Keck Laboratory, Yale University School of Medicine
Experimental: PB Compound Mediated Dissolution of Aggregated Abeta 1-42
Abeta1-42, is available from the Keck Laboratory, Yale University School of Medicine. PBS (pH 6.6): Sigma Cat# D-8662. Zn(ZnCl2): BDH Cat#100884E. (Dissolved in water in 1 mM concentration) DMSO: Ajax Cat#2225. Thioflavin T: Sigma Cat# T-3516. (Dissolved in water in 1 mM concentration)
By way of example of an amyloid composition, Abeta is dissolved in distilled water and peptide concentration is assessed by measured absorption at 214 nm in UV spectrometer. An aggregation reactive mixture (per one concentration of one testing compound) is set us as follows: Abeta: 25 μM, ZnCl2 50 μM, ThT 50 μM, PBS to make up to 500 μl. The tube is wrapped with foil and incubated at 37 degrees by rotation for 24 hours. A serial dilution of each test compound is made up in DMSO, for example: 100 μM, 500 μM, 1000 μM, 2500 μM and 5000 μM. The final concentrations are 1, 5, 10, 25 and 50 μM, 5 μl of each of these compounds is placed in a centrifuge tube and 5 μl of DMSO is added to both negative and positive control tubes. 495 μl of aggregates (after 24 hours incubation) is added to the centrifuge tube. The negative control is PBS plus ZnCl2 and ThT and DMSO. The positive control is aggregates plus DMSO. The tubes are incubated at 37 degrees for further 2 hours with rotation. Samples are measured for ThT fluorescence using an LS55 (Perkin Elmer) fluorimeter in a cuvette (500 μl volume). The excitation wavelength is 450 nm and the emission wavelength is 480 nm. Data are analyzed using graph pad prism program. The tested compounds included so called “PB” compounds.

[3] = test system: primary cortical neuronal cultured cells; assay: Test compound cytotoxicity, MTS assay, primary cortical neuronal cultures; format: cell-based, mouse; conditions: for Cytotox (% viable) Neuronal cells at 1 μM: 1 μM test compound; for Cytotox (% viable) Neuronal cells at 10 μM: 10 μM test compound
Experimental: Assay 2. Neurotoxicity Assays
Primary Cortical Neuronal Cultures
Media was then replaced with Neurobasal media (Invitrogen Life Technologies) and B27 supplements (Invitrogen Life Technologies). Cultures were maintained at 37° C. in 5% CO2. Prior to experimentation, the culture medium was replaced with Neurobasal media and B27 minus antioxidants (Invitrogen Life Technologies).
(§1) Assay 3. MTS Assay for Cell Viability
(§2) Cell viability is determined using the MTS assay. Culture medium is replaced with fresh neurobasal medium plus B27 supplements minus antioxidants. 1/10th volume MTS solution (Cell Titre 96 Aqueous One, Promega Corporation) and incubated at 37° C., 2 hrs. 200 microliter aliquots are measured with a spectrophotometer at 560 nm.
Assay 4. Assay for Test Compound Cytoxicity
Neuronal cortical cells were cultured for five days as per Assay 2 in NB media and B27 supplement.
On day six the test compounds were added to the neuronal cell cultures in NB media and B27 supplement minus antioxidants.
Test compounds were dissolved in 100% DMSO to a concentration of 2.5 mM (10 mM if excess compound was weighed out per vial—then diluted to 2.5 mM).
Test compounds were not added directly to cells, instead they were added to a 48 well ‘Drug Plate’ as comprised below:
The Drug Plate was incubated at 37° C. for 15 mins. 200 μl of each well was added in triplicate to the corresponding cell plate. The cell plate was incubated at 37 C, for 4 days.
On completion of the assay, 1/10 volume MTS was added per well of plate (ie 25 μl/250 μl). The plates were incubated at 37 C for 2 hrs, and then absorbance was read at 560 nm.

[4] = test system: M17 human neuroblastoma cells; assay: Cytotoxicity, M17 human neuroblastoma cells; format: cell-based; conditions: for Cytotox (% viable) M17 cells at 1 μM: 1 μM test compound; for Cytotox (% viable) M17 cells at 10 μM: 10 μM test compound
Experimental: as §1, §2

T2 sequence (P05067 672-713 limits assumed): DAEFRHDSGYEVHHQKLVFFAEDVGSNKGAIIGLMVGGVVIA
T1 sequence (P05067 672-713 limits assumed): as above

Compound | IC50 [1] [µM] | Disaggregation % Aggregate reduction at 5 μM [2] [%] | EC50 [2] [µM] | Cytotox (% viable) Neuronal cells at 1 μM [3] [%] | Cytotox (% viable) Neuronal cells at 10 μM [3] [%] | Cytotox (% viable) M17 cells at 1 μM [4] [%] | Cytotox (% viable) M17 cells at 10 μM [4] [%]
O=S(=O)(O)c1ccc(-c2ccnc3c2ccc2c(-c4ccc(S(=O)(=O)O)cc4)ccnc23)cc1 [PB 68] | > 10 | 44 | 8.5 |  |  |  | 
CN(C)c1ccc(-c2cc(Cl)c3cccnc3c2O)cc1 [PB 851] |  |  |  | 94 | 85 |  | 
c1ccc(-c2ccccn2)nc1 [PB 898] | 0.23 | 32 | > 20 |  |  |  | 
Br.CC(Br)CCn1cnc2c(O)c(Cl)cc(Cl)c2c1=O (stereo not drawn) [PB 1114] |  | 19.2 | > 20 | 101 | 73 |  | 
O=c1c2cccc(O)c2ncn1Cc1ccccn1 [PB 1117] | 0.72 | 57.3 | < 0.4 |  |  | 109.2 | 96
O=c1c2cccc(O)c2ncn1CC1CC1 [PB 1118] | 1.44 | 58 | < 0.4 |  |  | 106.8 | 88.6
CCc1cnc2c(O)cccn2c1=O [PB 1124] | 0.4 | 8.4 | > 20 |  |  | 96.1 | 27.1
Br.C/C=C/Cn1cnc2c(O)c(Cl)cc(Cl)c2c1=O [PB 1126] |  | 69 | 3.7 |  |  |  | 
O=c1c2c(Cl)ccc(O)c2ncn1CC1CC1 [PB 1132] | 0.47 | 16 | 15.2 |  |  | 86.3 | 57.6
O=c1c2c(Cl)ccc(O)c2ncn1Cc1ccccn1 [PB 1133] | 0.79 | 22 | > 20 |  |  |  | 
O=c1c2c(Cl)cc(I)c(O)c2ncn1Cc1ccccn1 [PB 1141] | 0.48 | 26 | 19.5 |  |  | 102.8 | 137
CCc1cnc2c(O)cccn2c1=S [PB 1143] | 0.48 | 62 | 4.1 |  |  | 93.3 | 73.7
O=C(NCc1ccc(F)cc1)c1cnc2c(O)cccn2c1=O [PB 1154] | 0.64 | 31 | > 20 |  |  | 76.7 | 54.2
O=c1c2ccc(I)c(O)c2ncn1Cc1cccc(Cn2cnc3c(O)c(I)ccc3c2=O)n1 [PB 1155] | 0.31 | 59 | 3.9 |  |  |  | 
O=c1c2cccc(O)c2ncn1-c1ccc(F)cc1 [PB 1156] | 0.96 | 22 | > 20 |  |  | 92.7 | 67.5
CCCCNC(=O)c1cnc2c(O)cccn2c1=O [PB 1159] | 0.68 | 49.9 | 5.06 |  |  | 115 | 41.1

Compound | IC50 [1] [µM] | Disaggregation % Aggregate reduction at 5 μM [2] [%] | EC50 [2] [µM] | Cytotox (% viable) Neuronal cells at 1 μM [3] [%] | Cytotox (% viable) Neuronal cells at 10 μM [3] [%] | Cytotox (% viable) M17 cells at 1 μM [4] [%] | Cytotox (% viable) M17 cells at 10 μM [4] [%]
O=c1c2ccc(I)c(O)c2ncn1-c1ccc(F)cc1 [PB 1162] | 3.2 | 52 | 4.7 |  |  | 93.9 | 36.5
CCN(CC)CCn1cnc2c(O)c(I)ccc2c1=O [PB 1163] | 0.29 | 43.3 | 11 |  |  | 106.5 | 41.4
O=c1c2c(Cl)cc(I)c(O)c2ncn1-c1cccnc1 [PB 1164] | 0.24 | 26 | > 20 |  |  | 112 | 111
CCCNC(=O)Cn1cnc2c(O)c(I)ccc2c1=O [PB 1166] | 0.43 | 21.7 | > 20 |  |  | 105 | 115.8
CCN(CC)C(=O)Cn1cnc2c(O)c(I)ccc2c1=O [PB 1167] | 0.39 | 39.3 | 7.4 |  |  | 92.2 | 98.7
CCn1cnc2c(O)c(I)cc(I)c2c1=O [PB 1169] | 0.31 | 64 | 1.44 |  |  |  | 
O=C1c2ccccc2C(=O)N1CCn1cnc2c(O)c(I)ccc2c1=O [PB 1170] | 0.72 | 53 | 4.28 |  |  | 127.4 | 104.8
Oc1ccccc1-c1cn2ccccc2n1 [PB 1173] | > 20 | 10 | > 20 |  |  |  | 
O=C(Nc1nc2ccc(F)cc2s1)c1cnc2c(O)cccn2c1=O [PB 1174] | 0.96 | 22 | 14.7 |  |  | 60.1 | 34.2
CCCCCn1cnc2c(O)c(I)ccc2c1=O [PB 1176] | 0.3 | 45 | 6.9 |  |  | 86.3 | 38.5
O=C(Cn1cnc2c(O)cccc2c1=O)Nc1ccccn1 [PB 1182] | 0.59 | 24 | > 20 |  |  | 110.1 | 98.2
CCC(C)Cn1cnc2c(O)cccc2c1=O (stereo not drawn) [PB 1184] | 0.54 | 49 | 5.27 |  |  | 102.7 | 47.2
O=C1c2ccccc2C(=O)N1CCn1cnc2c(O)cccc2c1=O [PB 1185] | 0.6 | 35 | 9.5 |  |  | 103.9 | 106.5
Oc1cccc2sc(Cc3ccccc3)nc12 [PB 1191] | > 10 | 10 | 6.89 |  |  |  | 
COc1ccc(NCc2cccc3cccnc23)cc1 [PB 1194] | > 10 | 21.5 | > 20 |  |  |  | 
Fc1ccc(NCc2cccc3cccnc23)cc1 [PB 1195] | > 10 | 19.9 | > 20 |  |  |  | 
